PubChem BioAssay AID1845215 (Molecular Pharmacology Branch, DTP, NCI, 2023)

Test system: SW 1271 complex tumor spheroid viability
Experiment: Anticancer human tumor SW 1271 cell line growth inhibition;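 further: spheroids exposed to agents for seven days before readout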;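 on viability, T/C: percent of DMSO vehicle control luminescence so 100% = vehicle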
Settings: for IC50: curve of first compound; for viability, T/C: stronger effect = lower value
In short: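 Complex spheroids of malignant cells with endothelial cells and mesenchymal stem cells; agents alone or combined, from near clinical Cmax (or 10 microM if unknown) down in half-log steps, 0.25% DMSO final.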

[1] = second compound 1 µM, first compound 0.0316 µM
[2] = second compound 1 µM, first compound 0.1 µM
[3] = second compound 1 µM, first compound 0.316 µM
[4] = second compound 1 µM, first compound 1 µM
[5] = second compound 1 µM, first compound 3.16 µM
[6] = second compound 1 µM, first compound 10 µM
[7] = second compound 3.16 µM, first compound 0.0316 µM
[8] = second compound 3.16 µM, first compound 0.1 µM
[9] = second compound 3.16 µM, first compound 0.316 µM
[10] = second compound 3.16 µM, first compound 1 µM
[11] = second compound 3.16 µM, first compound 3.16 µM
[12] = second compound 3.16 µM, first compound 10 µM
[13] = second compound 10 µM, first compound 0.0316 µM
[14] = second compound 10 µM, first compound 0.1 µM
[15] = second compound 10 µM, first compound 0.316 µM
[16] = second compound 10 µM, first compound 1 µM
[17] = second compound 10 µM, first compound 3.16 µM
[18] = second compound 10 µM, first compound 10 µM
[19] = second compound 31.6 µM, first compound 0.0316 µM
[20] = second compound 31.6 µM, first compound 0.1 µM
[21] = second compound 31.6 µM, first compound 0.316 µM
[22] = second compound 31.6 µM, first compound 1 µM
[23] = second compound 31.6 µM, first compound 3.16 µM
[24] = second compound 31.6 µM, first compound 10 µM
[25] = second compound 100 µM, first compound 0.0316 µM
[26] = second compound 100 µM, first compound 0.1 µM
[27] = second compound 100 µM, first compound 0.316 µM
[28] = second compound 100 µM, first compound 1 µM
[29] = second compound 100 µM, first compound 3.16 µM
[30] = second compound 100 µM, first compound 10 µM

| Compound | IC50 (second compound 1 µM) | IC50 (second compound 3.16 µM) | IC50 (second compound 10 µM) | IC50 (second compound 31.6 µM) | IC50 (second compound 100 µM) | viability, T/C [1] | viability, T/C [2] | viability, T/C [3] | viability, T/C [4] | viability, T/C [5] | viability, T/C [6] | viability, T/C [7] | viability, T/C [8] | viability, T/C [9] | viability, T/C [10] | viability, T/C [11] | viability, T/C [12] | viability, T/C [13] | viability, T/C [14] | viability, T/C [15] | also measured |
| --- | --- | --- | --- | --- | --- | --- | --- | --- | --- | --- | --- | --- | --- | --- | --- | --- | --- | --- | --- | --- | --- |
| Cc1cc(C)c(CNC(=O)c2cc(-c3ccc(CN4CCOCC4)cc3)cc3c2cnn3C2CCCC2)c(=O)[nH]1 + Cn1nnc2c(C(N)=O)ncn2c1=O | > 10 µM | > 10 µM | > 10 µM | > 10 µM | > 10 µM | 98.6% | 92.6% | 93.5% | 91.5% | 88.7% | 73.1% | 93.7% | 101% | 95.3% | 99.2% | 83.9% | 79.1% | 97.7% | 91.7% | 98.8% | viability, T/C [16]: 96.7%; viability, T/C [17]: 81.5%; viability, T/C [18]: 76.2%; viability, T/C [19]: 106%; viability, T/C [20]: 103%; viability, T/C [21]: 102%; viability, T/C [22]: 100%; viability, T/C [23]: 74.5%; viability, T/C [24]: 62%; viability, T/C [25]: 91.8%; viability, T/C [26]: 90.4%; viability, T/C [27]: 79.8%; viability, T/C [28]: 81.7%; viability, T/C [29]: 70.7%; viability, T/C [30]: 52.7% |
| [2H]c1nc(C)nc([2H])c1-c1cc(NC[C@@H](C)c2cccc3c(C(=O)NC)ccnc23)ncn1 + Cn1nnc2c(C(N)=O)ncn2c1=O | > 10 µM | > 10 µM | > 10 µM | > 10 µM | > 10 µM | 91.1% | 101% | 95.1% | 96.7% | 98.9% | 78.5% | 104% | 103% | 103% | 98.9% | 96.8% | 84.8% | 101% | 103% | 92.4% | viability, T/C [16]: 88.3%; viability, T/C [17]: 87.2%; viability, T/C [18]: 81.1%; viability, T/C [19]: 110%; viability, T/C [20]: 99.3%; viability, T/C [21]: 100%; viability, T/C [22]: 98.7%; viability, T/C [23]: 98.3%; viability, T/C [24]: 80.3%; viability, T/C [25]: 93.1%; viability, T/C [26]: 90.2%; viability, T/C [27]: 86%; viability, T/C [28]: 77.8%; viability, T/C [29]: 73.8%; viability, T/C [30]: 64.7% |
